For series [1], the system named is HL-60. Nature of the series: HL-60 leukemia cell proliferation (MTT), single agents and combinations, CI-isobologram analysis. The class given is cell-based, human. How it is done:
(§1) Assays of proliferation consist of cell proliferation (3H-thymidine) assay as previously described or the MTT assay after 3-5 days of exposure to the agents. Cell proliferation is assayed using a modification of the original MTT calorimetric assay described by Mosmann (53). To better delineate the issues of proliferation (and inhibition thereof) versus differentiation, which is induced by certain of the agents being proposed for testing, an alternative method would utilize simple cell counting (Courter, Inc.) of aliquots at 3 and 5 days of continuous exposure with concomitant analysis of induced differentiation by cell morphology (NBT-positive) conducted. The percentage of differentiated cells in liquid culture determined by the NBT reduction test (as described, (54) allows for an estimate of the total number of cells which are still blast cells and therefore considered capable of continued leukemogenic growth. The most promising combinations are used to examine de novo acute myeloid leukemia patient samples in like fashion.
The antigrowth factor activity of suramin was tested alone and in combination with all-trans retinoic acid (ATRA) against the human leukemic line HL-60 or its ATRA resistant subclone, HL-60R, to assess if an agent with the ability to interrupt putative autocrine driven leukemic cell growth could reestablish sensitivity to ATRA. […] Synergy or antagonism between combinations was then assessed using a combination-index CI-isobolo gram method.
Cell lines chosen for this study include the ATRA sensitive human acute leukemia HL-60 and the ATRA resistant subclone, HL-60R. While originally described as an acute promyelocytic cell line, more recent work categorizes this line as an acute myelogenous leukemia. The sensitivity of these cell lines to ATRA and suramin alone as single agents has been assessed. […] The assays of proliferation consist of cell proliferation after 3-5 days of exposure to the agents. Cell proliferation is assayed using a modification of the original MTT calorimetric assay described by Mossman, et al. In similar fashion, a dose response curve to cytosine arabinoside has been generated. Using the IC50 values for each agent alone allows selection of reasonable drug combinations. The data software program, "Dose effect analysis with microcomputers" (BioSoft, Inc.) developed by Dr. Chou, et al. is utilized. This computer analysis program allows the assessment of drug combinations for synergistic, additive, or antagonistic interactions.

Series [2] has as its system acute promyelocytic leukemia (APL). The settings on record: cited from earlier work.
The subject of another series is Mo7E. Nature of the series: Proliferation of GM-CSF dependent Mo7E cells. The class given is cell-based, human. Particulars: read-out: Half-maximal inhibition of Mo/7E growth (GM-CSF dependent). An excerpt:
control. Similarly, cell proliferating of GM-CSF
dependent (Mo7E) and autonomously proliferation (GM-CSF
independent) human leukemia cells (HL-60) gave half-
maximal inhibition of growth. Results are expressed as […]

In the next series the target is rhGM-CSF (Homo sapiens, UniProt P04141). In words: Competition for nucleotide photoprobe incorporation into rhGM-CSF. The format is binding.
Chain of rhGM-CSF (P04141 18-144): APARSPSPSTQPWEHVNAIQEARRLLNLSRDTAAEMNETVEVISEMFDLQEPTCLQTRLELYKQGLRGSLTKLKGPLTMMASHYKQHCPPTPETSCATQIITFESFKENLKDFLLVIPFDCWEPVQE
The subject of a further series is HL-60R. In words: HL-60R (ATRA resistant subclone) proliferation (MTT), single agents and combinations. The format is cell-based, human. Here is the method: as §1, with “fashion. […]” for “fashion.”
Cell lines chosen for this study include the ATRA sensitive human acute leukemia HL-60 and the ATRA resistant subclone, HL-60R. […] The sensitivity of these cell lines to ATRA and suramin alone as single agents has been assessed. […]

The subject of a further series is follicular lymphoma. The settings on record: evaluable follicular lymphoma patients; cited from earlier work.
A further series has as its system NB4. Nature of the series: Activity against NB4 leukemia cells. The class given is cell-based, human. Here is the method:
While originally described as an acute promyelocytic cell line, more recent work categorizes this line as an acute myelogenous leukemia.
as §1

Series [3] relates to HL-60. The settings on record: HL-60 in vitro, reference 48; cited from earlier work.
The mark [4] stands for this setting: Homo sapiens, HL-60, 120 h, read-out: Fractional Inhibition.
[5] abbreviates: photoprobe incorporation into rhGM-CSF compared to control, read-out: Half-maximal inhibition of nucleotide binding.
Setting [6] is: Homo sapiens, HL-60, autonomously proliferating cells, read-out: Half-maximal inhibition of HL-60 growth (GM-CSF independent).

pIC50: −log10 of the molar value. Like-named read-outs stand apart in the source and are kept apart here.

The source of these data is patent US6121320A, “Combination anti-leukemic therapy by utilizing suramin and biologic response modifiers” (The University of Kentucky Research Foundation, priority 1998, dated 2000).

As a reminder, the inhibition is the drop in the measured response relative to a control, in per cent. The term IC50 denotes the concentration at which inhibition is half-maximal.

Turning to `CC1=C(/C=C/C(C)=C/C=C/C(C)=C/C(=O)O)C(C)(C)CCC1` [ATRA, all-trans retinoic acid], the “m (slope of the median-effect plot)” value with HL-60 [1] (HL60, 5 days exposure) is “.2729”. Besides, the pIC50 in the series with HL-60 [1] (Homo sapiens, HL-60, 120 h, read-out: Dm (antilog of x-intercept of the median-effect plot, the potency (IC50))) is 9.66. Also, in the series with HL-60 [1] (setting [4]), the inhibition at 0.001 µM came to 56.1%, the inhibition at 0.01 µM was determined as 77.7%, the inhibition at 0.02 µM amounted to 79% and the inhibition at 0.04 µM is 82.3%. In the series with HL-60 [1] (setting [4]), the inhibition at 0.08 µM turned out to be 82.6% and the inhibition at 0.16 µM turned out to be 83.5%. In series [2] (APL), the “Patients resistant to ATRA at diagnosis or relapsing” value was 30-40%. The Complete remission rate in series [2] (ATRA as a single agent in APL) was no less than 70%. Besides, the “Patients with long term remissions” value in series [2] (ATRA treatment followed by chemotherapy) is given as 60%. Also, the “Patients with ATRA syndrome” value in series [2] (subset of APL patients, fever, respiratory distress, chest x-ray abnormalities, weight gain) was 5-20%.
Regarding `O=C(Nc1cccc(C(=O)Nc2ccc(S(=O)(=O)O)c3cc(S(=O)(=O)O)cc(S(=O)(=O)O)c23)c1)Nc1cccc(C(=O)Nc2ccc(S(=O)(=O)O)c3cc(S(=O)(=O)O)cc(S(=O)(=O)O)c23)c1` [NF023], the pIC50 in the series with Mo7E (Homo sapiens, Mo7e) was 3.99; at rhGM-CSF (setting [5]), 5.30; in the series on HL-60 [1] (setting [6]), 3.76.
Turning to `O=C(Nc1cc(C(=O)Nc2ccc(S(=O)(=O)O)cc2)cc(C(=O)Nc2ccc(S(=O)(=O)O)cc2)c1)Nc1cc(C(=O)Nc2ccc(S(=O)(=O)O)cc2)cc(C(=O)Nc2ccc(S(=O)(=O)O)cc2)c1` [NF110], the pIC50 is 4.28 with Mo7E; 5.82 on rhGM-CSF (setting [5]); 5.22 in the series with HL-60 [1] (autonomously proliferating cells, read-out: Half-maximal inhibition of HL-60 growth (GM-CSF independent)). Also, the Enhanced activity with HL-60 [1] (against HL-60, relative to suramin) is listed as 5-10 fold; in the series on HL-60R (against HL-60R, relative to suramin) it was 5-10 fold.
For the compound `Cc1ccc(C(=O)Nc2ccc(S(=O)(=O)O)c3cc(S(=O)(=O)O)cc(S(=O)(=O)O)c23)cc1NC(=O)c1cccc(NC(=O)Nc2cccc(C(=O)Nc3cc(C(=O)Nc4ccc(S(=O)(=O)O)c5cc(S(=O)(=O)O)cc(S(=O)(=O)O)c45)ccc3C)c2)c1` [suramin], in the series with follicular lymphoma, the “Patients achieving partial remission” value was “five of nine”. Besides, the pIC50 is 4.17 with Mo7E (Homo sapiens, Mo7e); 5.60 on rhGM-CSF; 4.42 in the series on HL-60 [1] (setting [6]). Further, in the series on HL-60 [1] (HL60, 5 days exposure), the “m (slope of the median-effect plot)” value came out at 1.725. Moreover, the “Inhibition of growth, in words” value in the series on HL-60 [1] (HL-60) and with HL-60R (HL-60R) was “active” in each case. Also, the IC50 with HL-60 [1] (Homo sapiens, HL-60, 120 h, HL60, 5 days exposure, doses printed in μM, read-out: Dm (antilog of x-intercept of the median-effect plot, the potency (IC50))) is 38.7 µM. Also, the inhibition at 3.5 µM in the series with HL-60 [1] (Homo sapiens, HL-60, 120 h, suramin 3.5 μM, HL60, 5 days exposure, read-out: Fractional Inhibition) stood at 2%. The inhibition at 7 µM in the series with HL-60 [1] (Homo sapiens, HL-60, 120 h, suramin 7.0 μM, HL60, 5 days exposure, read-out: Fractional Inhibition) is 4.7%. Further, the inhibition at 14 µM in the series on HL-60 [1] (Homo sapiens, HL-60, 120 h, suramin 14.0 μM, HL60, 5 days exposure, read-out: Fractional Inhibition) worked out at 9.3%. Moreover, the inhibition at 28 µM with HL-60 [1] (Homo sapiens, HL-60, 120 h, suramin 28.0 μM, HL60, 5 days exposure, read-out: Fractional Inhibition) is 41.9%. For the same compound, in the series with HL-60 [1] (Homo sapiens, HL-60, 120 h, suramin 56.0 μM, HL60, 5 days exposure, read-out: Fractional Inhibition), the inhibition at 56 µM was 67.8%. The “Activity, in words” value with NB4 is “active”. The “Suppression of proliferation, in words” value with HL-60 [3] is recorded as “strongly suppress”.
